From US20060199241A1, “Electrochemically and optically monitoring cleaving enzyme activity” (priority 2005, published 2006)

Tested on: APO-GDH
Assay: Homogeneous optical and electrochemical assay with GDH and PQQ
Type: biochemical
Settings: APO-GDH 1 μM, 2 mM CaCl2, 40 mM glucose, 50 μM PMS, redox indicator (DCIP, resazurin or thionine)
Method: Homogeneous Optical and Electrochemical Assay for DNA with GDH and PQQ (See FIG. 8) The PQQ solutions (variable concentrations) included APO-GDH (1 μM), 2 mM CaCl2, and 40 mM Glucose. 50 μM PMS and a redox indicator (0.1-0.2 mM DCIP, 0.025 mM resazurin, or 0.05 mM thionine) were also added. PQQ at 0.1 nM was detectable.

- PQQ concentration detectable (GDH enzyme activity): 0.1 nM
Structure (SMILES): O=C(O)c1cc(C(=O)O)c2c(n1)C(=O)C(=O)c1cc(C(=O)O)[nH]c1-2 [PQQ, pyrroloquinoline quinone]
